From PubChem BioAssay AID254 (DTP/NCI, 2004)
Values joined by “and” are separate entries in the source; they are usually repeats but may differ in a detail not shown here. Equal entries are not always repeated. Toxic doses and inconclusive results are not listed.

Tested on: L1210 leukemia iv in BDF1 mice, survival T/C
Test: NCI In Vivo Anticancer Drug Screen. Data for tumor model L1210 Leukemia (intravenous) in B6D2F1 (BDF1) mice
Conditions: endpoint: mean survival time, higher = longer survival
Experimental: The antitumor activity of compounds was measured in mice bearing transplantable tumors. Survival or tumor size were measured and the results are expressed as the measurement made in the treated group (T) divided by the measurement made in the vehicle treated control group (C). The tumor model used in this assay is L1210 Leukemia (intravenous) in B6D2F1 (BDF1) mice

[1] = dose: 15.0 mg/kg/injection, schedule: Q01DX001 (ip), vehicle: other
[2] = dose: 20.0 mg/kg/injection, schedule: Q04DX004 (ip), vehicle: other
[3] = dose: 30.0 mg/kg/injection, schedule: Q01DX001 (ip), vehicle: other
[4] = dose: 30.0 mg/kg/injection, schedule: Q04DX004 (ip), vehicle: other
[5] = dose: 90.0 mg/kg/injection, schedule: Q01DX001 (ip), vehicle: other

Structure (SMILES): CC1CCC(NC(=O)N(CCCl)N=O)CC1 (configuration not stated)
- T/C (dose: 5.0 mg/kg/injection, schedule: Q04DX004 (ip), vehicle: other): 124 % of control
- T/C (dose: 5.4 mg/kg/injection, schedule: Q01DX001 (oral), vehicle: other): 122 % of control
- T/C (dose: 8.6 mg/kg/injection, schedule: Q04DX004 (ip), vehicle: saline with Tween-80): 187 % of control
- T/C (dose: 10.0 mg/kg/injection, schedule: Q04DX004 (ip), vehicle: other): 182 % of control
- T/C (dose: 10.7 mg/kg/injection, schedule: Q01DX001 (ip), vehicle: saline with Tween-80): 152 % of control and 163 % of control
- T/C (dose: 12.0 mg/kg/injection, schedule: Q01DX001 (ip), vehicle: other): 165 % of control
- T/C (dose: 12.0 mg/kg/injection, schedule: Q01DX001 (oral), vehicle: other): 164 % of control and 187 % of control
- T/C (dose: 13.0 mg/kg/injection, schedule: Q04DX004 (ip), vehicle: saline with Tween-80): 849 % of control and 850 % of control
- T/C [1]: 352 % of control and 185 % of control and 332 % of control
- T/C (dose: 15.0 mg/kg/injection, schedule: Q04DX004 (ip), vehicle: other): 734 % of control
- T/C (dose: 16.0 mg/kg/injection, schedule: Q01DX001 (ip), vehicle: other): 102 % of control
- T/C (dose: 16.0 mg/kg/injection, schedule: Q01DX001 (ip), vehicle: saline with Tween-80): 189 % of control and 248 % of control
- T/C (dose: 20.0 mg/kg/injection, schedule: Q01DX001 (ip), vehicle: other): 532 % of control and 303 % of control and 326 % of control
- T/C [2]: 463 % of control
- T/C (dose: 20.0 mg/kg/injection, schedule: Q04DX004 (ip), vehicle: saline with Tween-80): 983 % of control
- T/C (dose: 24.0 mg/kg/injection, schedule: Q01DX001 (ip), vehicle: other): 153 % of control
- T/C (dose: 24.0 mg/kg/injection, schedule: Q01DX001 (ip), vehicle: saline with Tween-80): 347 % of control and 453 % of control
- T/C (dose: 27.0 mg/kg/injection, schedule: Q01DX001 (oral), vehicle: other): 590 % of control and 633 % of control and 818 % of control
- T/C [3]: 683 % of control
- T/C [4]: 819 % of control
- T/C (dose: 35.0 mg/kg/injection, schedule: Q01DX001 (ip), vehicle: other): 761 % of control
- T/C (dose: 36.0 mg/kg/injection, schedule: Q01DX001 (ip), vehicle: other): 153 % of control
- T/C (dose: 36.0 mg/kg/injection, schedule: Q01DX001 (ip), vehicle: saline with Tween-80): 612 % of control
- T/C (dose: 36.0 mg/kg/injection, schedule: Q01DX001 (oral), vehicle: other): 751 % of control and 753 % of control and 868 % of control
- T/C (dose: 40.0 mg/kg/injection, schedule: Q01DX001 (oral), vehicle: other): 633 % of control and 786 % of control and 818 % of control
- T/C (dose: 45.0 mg/kg/injection, schedule: Q01DX001 (oral), vehicle: other): 574 % of control and 600 % of control
- T/C (dose: 50.0 mg/kg/injection, schedule: Q01DX001 (ip), vehicle: other): 542 % of control and 661 % of control
- T/C (dose: 54.0 mg/kg/injection, schedule: Q01DX001 (ip), vehicle: other): 202 % of control
- T/C (dose: 54.0 mg/kg/injection, schedule: Q01DX001 (ip), vehicle: saline with Tween-80): 683 % of control and 875 % of control
- T/C (dose: 54.0 mg/kg/injection, schedule: Q01DX001 (oral), vehicle: other): 810 % of control and 983 % of control and 179 % of control
- T/C (dose: 55.0 mg/kg/injection, schedule: Q01DX001 (ip), vehicle: other): 500 % of control and 295 % of control
- T/C (dose: 60.0 mg/kg/injection, schedule: Q01DX001 (ip), vehicle: saline with Tween-80): 557 % of control
- T/C (dose: 60.0 mg/kg/injection, schedule: Q01DX001 (oral), vehicle: other): 408 % of control and 434 % of control and 185 % of control
- T/C (dose: 70.0 mg/kg/injection, schedule: Q01DX001 (ip), vehicle: other): 433 % of control and 226 % of control
- T/C (dose: 71.0 mg/kg/injection, schedule: Q01DX001 (ip), vehicle: saline with Tween-80): 156 % of control and 167 % of control
- T/C (dose: 80.0 mg/kg/injection, schedule: Q01DX001 (ip), vehicle: other): 580 % of control and 171 % of control
- T/C (dose: 81.0 mg/kg/injection, schedule: Q01DX001 (ip), vehicle: other): 378 % of control [middle of 4 runs]
- T/C (dose: 81.0 mg/kg/injection, schedule: Q01DX001 (ip), vehicle: saline with Tween-80): 520 % of control and 719 % of control
- T/C [5]: 511 % of control
- T/C (dose: 90.0 mg/kg/injection, schedule: Q01DX001 (oral), vehicle: other): 372 % of control and 320 % of control
- T/C (dose: 91.0 mg/kg/injection, schedule: Q01DX001 (oral), vehicle: other): 336 % of control and 513 % of control and 303 % of control
- T/C (dose: 100.0 mg/kg/injection, schedule: Q01DX001 (ip), vehicle: other): 350 % of control
- T/C (dose: 107.0 mg/kg/injection, schedule: Q01DX001 (ip), vehicle: saline with Tween-80): 201 % of control and 229 % of control
- T/C (dose: 110.0 mg/kg/injection, schedule: Q01DX001 (ip), vehicle: other): 188 % of control
- T/C (dose: 120.0 mg/kg/injection, schedule: Q01DX001 (ip), vehicle: other): 245 % of control
- T/C (dose: 160.0 mg/kg/injection, schedule: Q01DX001 (ip), vehicle: saline with Tween-80): 392 % of control and 248 % of control
- T/C (dose: 240.0 mg/kg/injection, schedule: Q01DX001 (ip), vehicle: saline with Tween-80): 556 % of control
- T/C (dose: 360.0 mg/kg/injection, schedule: Q01DX001 (ip), vehicle: saline with Tween-80): 194 % of control and 263 % of control
- T/C (dose: 540.0 mg/kg/injection, schedule: Q01DX001 (ip), vehicle: saline with Tween-80): 173 % of control

Structure (SMILES): O=NN(CCF)C(=O)NC1CSCSC1
- T/C (dose: 3.7 mg/kg/injection, schedule: Q01DX001 (ip), vehicle: other): 124 % of control
- T/C (dose: 7.0 mg/kg/injection, schedule: Q01DX001 (ip), vehicle: other): 186 % of control and 204 % of control
- T/C [1]: 351 % of control and 417 % of control
- T/C (dose: 31.0 mg/kg/injection, schedule: Q01DX001 (ip), vehicle: other): 582 % of control and 744 % of control
- T/C (dose: 62.0 mg/kg/injection, schedule: Q01DX001 (ip), vehicle: other): 433 % of control and 846 % of control

Structure (SMILES): NC(=S)N/N=C/c1ccccn1
- T/C (dose: 5.0 mg/kg/injection, schedule: Q01HX008 (ip), vehicle: other): 105 % of control
- T/C (dose: 5.0 mg/kg/injection, schedule: Q03HX008 (ip), vehicle: other): 166 % of control
- T/C (dose: 8.0 mg/kg/injection, schedule: Q01DX008 (ip), vehicle: other): 176 % of control
- T/C (dose: 8.0 mg/kg/injection, schedule: Q03HX008 (ip), vehicle: other): 208 % of control
- T/C (dose: 8.0 mg/kg/injection, schedule: Q06HX008 (ip), vehicle: other): 176 % of control
- T/C (dose: 8.0 mg/kg/injection, schedule: Q12HX008 (ip), vehicle: other): 200 % of control
- T/C (dose: 22.0 mg/kg/injection, schedule: Q01DX001 (ip), vehicle: other): 111 % of control
- T/C (dose: 33.0 mg/kg/injection, schedule: Q01DX001 (ip), vehicle: other): 110 % of control

Structure (SMILES): O=NN(CCCl)C(=O)N[C@H]1CCCC[C@@H]1Cl
- T/C (dose: 5.0 mg/kg/injection, schedule: Q01DX001 (ip), vehicle: other): 108 % of control and 121 % of control
- T/C [1]: 153 % of control and 160 % of control
- T/C [2]: 319 % of control
- T/C [3]: 514 % of control
- T/C [4]: 95 % of control
- T/C (dose: 41.0 mg/kg/injection, schedule: Q01DX001 (ip), vehicle: other): 558 % of control and 564 % of control
- T/C (dose: 45.0 mg/kg/injection, schedule: Q01DX001 (ip), vehicle: other): 819 % of control
- T/C (dose: 45.0 mg/kg/injection, schedule: Q04DX004 (ip), vehicle: other): 512 % of control
- T/C (dose: 75.0 mg/kg/injection, schedule: Q01DX001 (ip), vehicle: other): 583 % of control and 650 % of control and 652 % of control
- T/C (dose: 83.0 mg/kg/injection, schedule: Q01DX001 (ip), vehicle: other): 376 % of control and 553 % of control
- T/C [5]: 460 % of control

Structure (SMILES): O=NN(CCCl)C(=O)N[C@H]1CCCC[C@H]1Cl
- T/C (dose: 25.0 mg/kg/injection, schedule: Q01DX001 (ip), vehicle: carboxymethylcellulose (CMC)): 190 % of control and 262 % of control
- T/C (dose: 51.0 mg/kg/injection, schedule: Q01DX001 (ip), vehicle: carboxymethylcellulose (CMC)): 427 % of control and 435 % of control
- T/C (dose: 101.0 mg/kg/injection, schedule: Q01DX001 (ip), vehicle: carboxymethylcellulose (CMC)): 588 % of control and 767 % of control
- T/C (dose: 203.0 mg/kg/injection, schedule: Q01DX001 (ip), vehicle: carboxymethylcellulose (CMC)): 111 % of control and 202 % of control
